Like-named read-outs stand apart in the source and are kept apart here.
Legend:
surgically stressed rats [1] = assay: Effect on body electrolyte: urinary electrolyte after continuous administration in glucose-electrolytes infusion solution (SOLITA-T No. 3)
Protocol: (§1) The solution was continuously administered to surgically stressed rats underwent intestinal tract scratch operation at a normal dose (240 mL/kg/day) for 3 days. On the final day of administration, urine was collected by 24-hour urine collection and measured for the urinary electrolyte concentration.

surgically stressed rats [2] = conditions: rat, in vivo
Protocol: as §1

[3] = HMB final concentration 0.42 weight/volume % in SOLITA-T No. 3, 240 mL/kg/day for 3 days, 24-hour urine of the final day

Row | Compound | Urinary calcium excretion amount (surgically stressed rats [1]; [3]) | Urinary phosphate excretion amount (surgically stressed rats [1]; [3]) | Electrolyte abnormality (urinary calcium, urinary phosphate) in combined administration with SOLITA-T No. 3 infusion solution (surgically stressed rats [1]; in words) | Electrolyte abnormality (urinary calcium, urinary phosphate) in combined administration with SOLITA-T No. 3 infusion solution (surgically stressed rats [2])
1 | CC(C)(O)CC(=O)O.N=C(N)NCCCC(N)C(=O)O (stereo not shown) [Arginine salt nonhydrate of HMB, arginine salt nonhydrate of HMB] | 0.24 mg/day | 19.1 mg/day | does not induce the above electrolyte abnormality | –
2 | CC(C)(O)CC(=O)[O-].CC(C)(O)CC(=O)[O-].[Ca+2] [Calcium salt hydrate of HMB, calcium salt hydrate of HMB] | – | – | – | induces the increase in urinary calcium and the decrease in urinary phosphate excretion

— patent US11098007B2, “Crystal of amino acid salt of 3-hydroxyisovaleric acid and production method thereof” (KYOWA HAKKO BIO CO., LTD., priority 2016, dated 2021)
